Experimental data taken from patent US20080009418A1, “Selective Inhibitors” (Alchemia LTD., priority 2004, published 2008).

Key:
Details in all cases: compound at 10 μM
[1] = molecular target: T1, Human melanin-concentrating hormone (MCH1) (Homo sapiens, UniProt Q99705); assay: Radioligand binding, human melanin-concentrating hormone MCH1 membranes, FlashPlate, [125I]-S36057
T1 construct: purchased Perkin Elmer Biosignal
Outline: (§1)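 Cloned human receptor membranes were coated onto FlashPlate wells and incubated with radioligand and compound (added from a 0.5 mM DMSO daughter plate) for 1 hour at room temperature in the dark. Scintillation counting gave percent inhibition, with DMSO defining total and reference ligand defining non-specific binding.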

Human κ-Opioid (KOP) = molecular target: T2, Human κ-Opioid (KOP) (Homo sapiens, UniProt P41145); assay: Radioligand binding, human κ-opioid (KOP) membranes, filtration, [3H]-Diprenorphine
T2 construct: purchased Perkin Elmer Biosignal
T2 sequence (P41145 whole entry): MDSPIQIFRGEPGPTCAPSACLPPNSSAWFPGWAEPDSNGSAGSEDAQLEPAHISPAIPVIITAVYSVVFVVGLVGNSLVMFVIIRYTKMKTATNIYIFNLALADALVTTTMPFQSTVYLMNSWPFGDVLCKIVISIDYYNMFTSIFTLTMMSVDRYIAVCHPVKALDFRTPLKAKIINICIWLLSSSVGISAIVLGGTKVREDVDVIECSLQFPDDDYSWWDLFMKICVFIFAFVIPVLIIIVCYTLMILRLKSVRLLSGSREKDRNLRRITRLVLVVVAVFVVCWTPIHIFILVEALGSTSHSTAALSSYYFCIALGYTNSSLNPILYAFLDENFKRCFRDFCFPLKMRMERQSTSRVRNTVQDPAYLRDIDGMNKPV
Outline: (§2)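 Filtration binding on cloned human receptor membranes (1 Unit/well), [125I]-Substance P for NK1 and [3H]-Diprenorphine for KOP, 1 h at room temperature. Filters PEI-presoaked, washed with cold 50 mM Tris-HCl pH 7.4, counted by scintillation; percent inhibition calculated, reference ligand defining non-specific binding.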

Human melanocortin (MC5) = molecular target: T3, Human melanocortin (MC5) (Homo sapiens, UniProt P33032); assay: Radioligand binding, human melanocortin MC5 membranes, FlashPlate, [125I]-NDP-αMSH
T3 construct: purchased Perkin Elmer Biosignal
T3 sequence (P33032 whole entry): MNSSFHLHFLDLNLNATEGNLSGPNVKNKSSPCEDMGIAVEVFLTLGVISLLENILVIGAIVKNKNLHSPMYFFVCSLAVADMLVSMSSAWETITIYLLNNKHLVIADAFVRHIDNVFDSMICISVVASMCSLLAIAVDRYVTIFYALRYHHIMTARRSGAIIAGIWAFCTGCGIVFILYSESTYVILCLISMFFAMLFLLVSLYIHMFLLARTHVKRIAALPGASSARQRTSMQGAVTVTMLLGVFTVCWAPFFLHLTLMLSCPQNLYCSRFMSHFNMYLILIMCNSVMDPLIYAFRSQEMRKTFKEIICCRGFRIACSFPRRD
Outline: as §1

Human Melanocortin (MC3) = molecular target: T4, Human Melanocortin (MC3) (Homo sapiens, UniProt P41968); assay: Radioligand binding, human melanocortin MC3 membranes, FlashPlate, [125I]-NDP-αMSH
T4 construct: purchased Perkin Elmer Biosignal
T4 sequence (P41968 whole entry): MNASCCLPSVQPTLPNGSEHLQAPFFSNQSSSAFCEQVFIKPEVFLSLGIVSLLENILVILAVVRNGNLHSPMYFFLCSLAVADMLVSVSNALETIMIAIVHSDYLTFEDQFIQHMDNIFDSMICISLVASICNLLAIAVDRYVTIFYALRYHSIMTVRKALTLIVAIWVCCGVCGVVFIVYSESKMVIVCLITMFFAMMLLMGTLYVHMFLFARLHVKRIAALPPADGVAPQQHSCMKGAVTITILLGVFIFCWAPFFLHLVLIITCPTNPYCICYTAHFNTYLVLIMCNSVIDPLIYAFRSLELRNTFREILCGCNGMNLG
Outline: as §1

Human μ-opioid (MOP) = molecular target: T5, Human μ-opioid (MOP) (Homo sapiens, UniProt P35372); assay: Radioligand binding, human μ-opioid (MOP) membranes, FlashPlate, [3H]-Naloxone
T5 construct: purchased Perkin Elmer Biosignal
T5 sequence (P35372 whole entry): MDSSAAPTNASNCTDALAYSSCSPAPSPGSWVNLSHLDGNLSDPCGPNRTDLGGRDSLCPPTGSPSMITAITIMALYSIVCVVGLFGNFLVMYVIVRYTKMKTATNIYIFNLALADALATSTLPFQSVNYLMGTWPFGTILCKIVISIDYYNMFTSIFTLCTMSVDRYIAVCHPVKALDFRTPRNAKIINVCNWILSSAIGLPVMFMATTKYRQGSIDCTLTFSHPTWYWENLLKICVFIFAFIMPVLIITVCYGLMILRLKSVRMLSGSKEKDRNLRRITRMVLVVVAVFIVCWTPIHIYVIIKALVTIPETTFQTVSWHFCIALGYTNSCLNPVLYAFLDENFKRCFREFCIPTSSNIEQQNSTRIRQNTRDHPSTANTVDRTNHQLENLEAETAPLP
Outline: as §1

Human neurokinin (NK1) = molecular target: T6, Human neurokinin (NK1) (Homo sapiens, UniProt P25103); assay: Radioligand binding, human neurokinin NK1 membranes, filtration, [125I]-Substance P
T6 construct: purchased Perkin Elmer Biosignal
T6 sequence (P25103 whole entry): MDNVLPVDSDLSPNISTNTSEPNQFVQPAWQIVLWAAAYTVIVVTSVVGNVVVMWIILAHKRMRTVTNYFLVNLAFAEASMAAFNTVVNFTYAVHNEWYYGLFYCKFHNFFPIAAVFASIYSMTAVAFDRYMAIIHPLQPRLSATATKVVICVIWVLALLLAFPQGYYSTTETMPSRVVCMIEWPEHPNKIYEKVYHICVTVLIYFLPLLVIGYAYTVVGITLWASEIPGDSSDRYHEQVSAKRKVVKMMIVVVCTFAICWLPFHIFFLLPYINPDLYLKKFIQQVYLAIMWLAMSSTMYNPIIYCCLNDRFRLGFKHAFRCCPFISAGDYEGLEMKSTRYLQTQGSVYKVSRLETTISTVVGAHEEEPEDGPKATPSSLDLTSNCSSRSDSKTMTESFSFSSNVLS
Outline: as §2

Mouse urotensin (mUR2) = molecular target: T7, Mouse urotensin (mUR2) (Mus musculus, UniProt Q8VIH9); assay: Radioligand binding, mouse urotensin mUR2 membranes, FlashPlate, [125I]-Urotensin II
T7 construct: purchased Perkin Elmer Biosignal
T7 sequence (Q8VIH9 1-385): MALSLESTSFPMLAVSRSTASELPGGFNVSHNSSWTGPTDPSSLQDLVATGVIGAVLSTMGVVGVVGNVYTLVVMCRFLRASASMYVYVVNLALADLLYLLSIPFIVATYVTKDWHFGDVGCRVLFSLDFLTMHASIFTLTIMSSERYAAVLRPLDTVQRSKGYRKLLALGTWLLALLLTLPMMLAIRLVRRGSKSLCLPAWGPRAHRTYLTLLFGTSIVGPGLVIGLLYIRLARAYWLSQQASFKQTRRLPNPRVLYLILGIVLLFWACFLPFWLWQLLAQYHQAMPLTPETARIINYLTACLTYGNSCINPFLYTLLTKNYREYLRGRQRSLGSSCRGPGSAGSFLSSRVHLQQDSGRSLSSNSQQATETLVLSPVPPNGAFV
Outline: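 Cloned mouse urotensin (mUR2) receptor membranes from Perkin Elmer Biosignal were immobilized in FlashPlate microplates using a proprietary coating. Each well got 19.5 μl buffer, then 0.5 μl of DMSO, reference ligand, or compound. Adding 5 μl of [125I]-Urotensin II, diluted to 5× final concentration in binding buffer, started binding. Plates were sealed with TopSeal-A and incubated 1 hour at room temperature in the dark. Wells were counted for 30 seconds each on a TopCount after a 60-second delay, and percentage inhibition was calculated.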

[2] = molecular target: T8, Human neuropeptide Y (NPY-Y1) (Homo sapiens, UniProt P25929); assay: Radioligand binding, human neuropeptide Y NPY-Y1 membranes, FlashPlate, [125I]-PYY
T8 construct: purchased Perkin Elmer Biosignal
T8 sequence (P25929 1-384): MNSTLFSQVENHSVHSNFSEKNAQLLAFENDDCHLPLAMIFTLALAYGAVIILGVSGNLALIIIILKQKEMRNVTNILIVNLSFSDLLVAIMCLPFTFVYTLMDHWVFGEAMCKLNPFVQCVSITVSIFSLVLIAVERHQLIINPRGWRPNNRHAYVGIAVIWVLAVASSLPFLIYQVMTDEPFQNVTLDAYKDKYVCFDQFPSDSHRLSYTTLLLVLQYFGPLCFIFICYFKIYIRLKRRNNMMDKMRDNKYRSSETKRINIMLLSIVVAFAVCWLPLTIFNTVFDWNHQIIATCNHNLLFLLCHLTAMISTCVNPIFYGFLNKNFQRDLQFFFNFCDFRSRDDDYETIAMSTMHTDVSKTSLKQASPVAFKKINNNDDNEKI
Outline: as §1

Human δ-opioid (DOP) = molecular target: T9, Human δ-opioid (DOP) (Homo sapiens, UniProt P41143); assay: Radioligand binding, human δ-opioid (DOP) membranes, FlashPlate, [3H]-Bremazocine
T9 construct: purchased Perkin Elmer Biosignal
T9 sequence (P41143 whole entry): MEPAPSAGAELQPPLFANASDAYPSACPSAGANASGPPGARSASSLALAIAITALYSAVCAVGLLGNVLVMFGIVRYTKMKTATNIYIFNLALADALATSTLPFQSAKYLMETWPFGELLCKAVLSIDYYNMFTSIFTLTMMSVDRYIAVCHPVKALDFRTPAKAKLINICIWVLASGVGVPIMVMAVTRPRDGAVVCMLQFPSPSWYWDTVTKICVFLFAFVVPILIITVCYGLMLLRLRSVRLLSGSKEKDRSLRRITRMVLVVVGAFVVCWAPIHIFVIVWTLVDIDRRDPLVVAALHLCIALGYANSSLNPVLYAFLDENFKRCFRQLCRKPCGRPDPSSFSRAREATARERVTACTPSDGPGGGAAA
Outline: as §1

Human Melanocortin (MC4) = molecular target: T10, Human Melanocortin (MC4) (Homo sapiens, UniProt P32245); assay: Radioligand binding, human melanocortin MC4 membranes, FlashPlate, [125I]-NDP-αMSH
T10 construct: purchased Perkin Elmer Biosignal
T10 sequence (P32245 whole entry): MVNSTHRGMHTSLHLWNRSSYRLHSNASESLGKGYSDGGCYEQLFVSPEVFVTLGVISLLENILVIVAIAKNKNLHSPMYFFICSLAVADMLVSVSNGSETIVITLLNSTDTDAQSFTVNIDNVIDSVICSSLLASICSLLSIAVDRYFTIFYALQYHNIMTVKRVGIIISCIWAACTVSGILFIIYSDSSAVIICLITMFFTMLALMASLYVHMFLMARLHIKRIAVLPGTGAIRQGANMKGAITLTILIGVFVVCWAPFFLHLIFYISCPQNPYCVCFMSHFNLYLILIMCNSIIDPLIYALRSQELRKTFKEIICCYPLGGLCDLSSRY
Outline: as §1

Human opioid (ORL1) = molecular target: T11, Human opioid (ORL1) (Homo sapiens, UniProt P41146); assay: Radioligand binding, human opioid ORL1 membranes, FlashPlate, [125I]-Nociceptin
T11 construct: purchased Perkin Elmer Biosignal
T11 sequence (P41146 whole entry): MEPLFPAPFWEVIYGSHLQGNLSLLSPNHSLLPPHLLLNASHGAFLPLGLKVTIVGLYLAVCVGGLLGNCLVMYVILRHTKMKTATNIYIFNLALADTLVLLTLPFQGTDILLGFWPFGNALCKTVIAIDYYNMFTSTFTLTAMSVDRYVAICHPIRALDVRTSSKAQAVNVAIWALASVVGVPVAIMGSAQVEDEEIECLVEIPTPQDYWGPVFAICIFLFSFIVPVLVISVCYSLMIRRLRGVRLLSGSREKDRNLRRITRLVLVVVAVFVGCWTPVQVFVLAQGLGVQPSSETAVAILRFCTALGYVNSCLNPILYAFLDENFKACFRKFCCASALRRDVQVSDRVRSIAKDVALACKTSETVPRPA
Outline: as §1

T1 sequence (Q99705 whole entry): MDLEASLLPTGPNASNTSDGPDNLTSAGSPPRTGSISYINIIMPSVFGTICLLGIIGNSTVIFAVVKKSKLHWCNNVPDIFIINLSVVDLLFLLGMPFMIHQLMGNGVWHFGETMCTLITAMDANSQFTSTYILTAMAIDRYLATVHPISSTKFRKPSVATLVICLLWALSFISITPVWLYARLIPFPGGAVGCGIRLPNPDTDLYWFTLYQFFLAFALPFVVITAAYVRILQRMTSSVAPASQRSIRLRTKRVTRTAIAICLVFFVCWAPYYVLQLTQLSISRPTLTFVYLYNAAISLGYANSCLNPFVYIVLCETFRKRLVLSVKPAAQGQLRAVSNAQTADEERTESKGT

## CO[C@H]1[C@H](O)[C@@H](COCc2ccc(-c3ccccc3)cc2)OC(OCc2ccc(-c3ccccc3)cc2)[C@@H]1NC(=O)CNC(=N)N (stereo partly shown) [compound 51]
[1]; human MCH1 membranes
  A6 radioligand binding inhibition: + (“+” indicates greater than 50% inhibition at 10 μM)
Human κ-Opioid (KOP); human κ-opioid (KOP) membranes
  A2 radioligand binding inhibition: − (“−” indicates less than 50% inhibition at 10 μM)
Human melanocortin (MC5); human melanocortin MC5 membranes
  A5 radioligand binding inhibition: + (“+” indicates greater than 50% inhibition at 10 μM)
Human Melanocortin (MC3); human melanocortin MC3 membranes
  A3 radioligand binding inhibition: + (“+” indicates greater than 50% inhibition at 10 μM)
Human μ-opioid (MOP); human μ-opioid (MOP) membranes
  A7 radioligand binding inhibition: − (“−” indicates less than 50% inhibition at 10 μM)
Human neurokinin (NK1); human neurokinin NK1 membranes
  A8 radioligand binding inhibition: + (“+” indicates greater than 50% inhibition at 10 μM)
Mouse urotensin (mUR2); mouse urotensin mUR2 membranes
  A11 radioligand binding inhibition: − (“−” indicates less than 50% inhibition at 10 μM)
[2]; human NPY-Y1 membranes
  A9 radioligand binding inhibition: − (“−” indicates less than 50% inhibition at 10 μM)
Human δ-opioid (DOP); human δ-opioid (DOP) membranes
  A1 radioligand binding inhibition: − (“−” indicates less than 50% inhibition at 10 μM)
Human Melanocortin (MC4); human melanocortin MC4 membranes
  A4 radioligand binding inhibition: + (“+” indicates greater than 50% inhibition at 10 μM)
Human opioid (ORL1); human ORL1 membranes
  A10 radioligand binding inhibition: + (“+” indicates greater than 50% inhibition at 10 μM)

## CSC1OC(COCc2ccc3ccccc3c2)C(O)C(OCc2ccc3ccccc3c2)C1NC(=O)CCNC(=N)N (stereo not shown) [compound 319]
[1]; [125I]-S36057
  A6: inhibition of radioligand binding, human melanin-concentrating hormone (MCH1): − (“−” indicates less than 50% inhibition at 10 μM)
Human κ-Opioid (KOP); [3H]-Diprenorphine
  A2: inhibition of radioligand binding, human κ-opioid (KOP): − (“−” indicates less than 50% inhibition at 10 μM)
Human melanocortin (MC5); [125I]-NDP-αMSH
  A5: inhibition of radioligand binding, human melanocortin (MC5): + (“+” indicates greater than 50% inhibition at 10 μM)
Human Melanocortin (MC3); [125I]-NDP-αMSH
  A3: inhibition of radioligand binding, human melanocortin (MC3): − (“−” indicates less than 50% inhibition at 10 μM)
Human μ-opioid (MOP); [3H]-Naloxone
  A7: inhibition of radioligand binding, human μ-opioid (MOP): − (“−” indicates less than 50% inhibition at 10 μM)
Human neurokinin (NK1); [125I]-Substance P
  A8: inhibition of radioligand binding, human neurokinin (NK1): + (“+” indicates greater than 50% inhibition at 10 μM)
Mouse urotensin (mUR2); [125I]-Urotensin II
  A11: inhibition of radioligand binding, mouse urotensin (mUR2): − (“−” indicates less than 50% inhibition at 10 μM)
[2]; [125I]-PYY
  A9: inhibition of radioligand binding, human neuropeptide Y (NPY-Y1): − (“−” indicates less than 50% inhibition at 10 μM)
Human δ-opioid (DOP); [3H]-Bremazocine
  A1: inhibition of radioligand binding, human δ-opioid (DOP): − (“−” indicates less than 50% inhibition at 10 μM)
Human Melanocortin (MC4); [125I]-NDP-αMSH
  A4: inhibition of radioligand binding, human melanocortin (MC4): + (“+” indicates greater than 50% inhibition at 10 μM)
Human opioid (ORL1); [125I]-Nociceptin
  A10: inhibition of radioligand binding, human opioid (ORL1): − (“−” indicates less than 50% inhibition at 10 μM)

## NCC1CCC(C(=O)NC2O[C@H](CO)[C@@H](O)[C@H](OCc3cccc4ccccc34)[C@H]2NC(=O)c2ccccc2)CC1 (stereo partly shown) [compound 362]
[1]; [125I]-S36057
  A6: inhibition of radioligand binding, human melanin-concentrating hormone (MCH1): − (“−” indicates less than 50% inhibition at 10 μM)
Human κ-Opioid (KOP); [3H]-Diprenorphine
  A2: inhibition of radioligand binding, human κ-opioid (KOP): − (“−” indicates less than 50% inhibition at 10 μM)
Human melanocortin (MC5); [125I]-NDP-αMSH
  A5: inhibition of radioligand binding, human melanocortin (MC5): − (“−” indicates less than 50% inhibition at 10 μM)
Human Melanocortin (MC3); [125I]-NDP-αMSH
  A3: inhibition of radioligand binding, human melanocortin (MC3): − (“−” indicates less than 50% inhibition at 10 μM)
Human μ-opioid (MOP); [3H]-Naloxone
  A7: inhibition of radioligand binding, human μ-opioid (MOP): − (“−” indicates less than 50% inhibition at 10 μM)
Human neurokinin (NK1); [125I]-Substance P
  A8: inhibition of radioligand binding, human neurokinin (NK1): + (“+” indicates greater than 50% inhibition at 10 μM)
Mouse urotensin (mUR2); [125I]-Urotensin II
  A11: inhibition of radioligand binding, mouse urotensin (mUR2): − (“−” indicates less than 50% inhibition at 10 μM)
[2]; [125I]-PYY
  A9: inhibition of radioligand binding, human neuropeptide Y (NPY-Y1): − (“−” indicates less than 50% inhibition at 10 μM)
Human δ-opioid (DOP); [3H]-Bremazocine
  A1: inhibition of radioligand binding, human δ-opioid (DOP): − (“−” indicates less than 50% inhibition at 10 μM)
Human Melanocortin (MC4); [125I]-NDP-αMSH
  A4: inhibition of radioligand binding, human melanocortin (MC4): − (“−” indicates less than 50% inhibition at 10 μM)
Human opioid (ORL1); [125I]-Nociceptin
  A10: inhibition of radioligand binding, human opioid (ORL1): − (“−” indicates less than 50% inhibition at 10 μM)

## CO[C@H]1[C@H](O)[C@@H](COCc2cccc(O)c2)OC(OCCc2ccccc2)[C@@H]1NC(=O)CCCN (stereo partly shown) [compound 160]
[1]; [125I]-S36057
  A6 radioligand binding, percentage inhibition: − (“−” indicates less than 50% inhibition at 10 μM)
Human κ-Opioid (KOP); [3H]-Diprenorphine
  A2 radioligand binding, percentage inhibition: − (“−” indicates less than 50% inhibition at 10 μM)
Human melanocortin (MC5); [125I]-NDP-αMSH
  A5 radioligand binding, percentage inhibition: − (“−” indicates less than 50% inhibition at 10 μM)
Human Melanocortin (MC3); [125I]-NDP-αMSH
  A3 radioligand binding, percentage inhibition: − (“−” indicates less than 50% inhibition at 10 μM)
Human μ-opioid (MOP); [3H]-Naloxone
  A7 radioligand binding, percentage inhibition: − (“−” indicates less than 50% inhibition at 10 μM)
Human neurokinin (NK1); [125I]-Substance P
  A8 radioligand binding, percentage inhibition: + (“+” indicates greater than 50% inhibition at 10 μM)
Mouse urotensin (mUR2); [125I]-Urotensin II
  A11 radioligand binding, percentage inhibition: − (“−” indicates less than 50% inhibition at 10 μM)
[2]; [125I]-PYY
  A9 radioligand binding, percentage inhibition: − (“−” indicates less than 50% inhibition at 10 μM)
Human δ-opioid (DOP); [3H]-Bremazocine
  A1 radioligand binding, percentage inhibition: − (“−” indicates less than 50% inhibition at 10 μM)
Human Melanocortin (MC4); [125I]-NDP-αMSH
  A4 radioligand binding, percentage inhibition: − (“−” indicates less than 50% inhibition at 10 μM)
Human opioid (ORL1); [125I]-Nociceptin
  A10 radioligand binding, percentage inhibition: − (“−” indicates less than 50% inhibition at 10 μM)

## NCCC(=O)NC1C(OCc2ccc3ccccc3c2)OC(COCc2ccc3ccccc3c2)C(O)C1OCc1ccccc1 (stereo not shown) [compound 387]
[1]; [125I]-S36057, human MCH1 membranes
  A6: inhibition of radioligand binding: − (“−” indicates less than 50% inhibition at 10 μM)
Human κ-Opioid (KOP); [3H]-Diprenorphine, human KOP membranes
  A2: inhibition of radioligand binding: − (“−” indicates less than 50% inhibition at 10 μM)
Human melanocortin (MC5); [125I]-NDP-αMSH, human MC5 membranes
  A5: inhibition of radioligand binding: + (“+” indicates greater than 50% inhibition at 10 μM)
Human Melanocortin (MC3); [125I]-NDP-αMSH, human MC3 membranes
  A3: inhibition of radioligand binding: + (“+” indicates greater than 50% inhibition at 10 μM)
Human μ-opioid (MOP); [3H]-Naloxone, human MOP membranes
  A7: inhibition of radioligand binding: − (“−” indicates less than 50% inhibition at 10 μM)
Human neurokinin (NK1); [125I]-Substance P, human NK1 membranes
  A8: inhibition of radioligand binding: + (“+” indicates greater than 50% inhibition at 10 μM)
Mouse urotensin (mUR2); [125I]-Urotensin II, mouse mUR2 membranes
  A11: inhibition of radioligand binding: − (“−” indicates less than 50% inhibition at 10 μM)
[2]; [125I]-PYY, human NPY-Y1 membranes
  A9: inhibition of radioligand binding: − (“−” indicates less than 50% inhibition at 10 μM)
Human δ-opioid (DOP); [3H]-Bremazocine, human DOP membranes
  A1: inhibition of radioligand binding: − (“−” indicates less than 50% inhibition at 10 μM)
Human Melanocortin (MC4); [125I]-NDP-αMSH, human MC4 membranes
  A4: inhibition of radioligand binding: + (“+” indicates greater than 50% inhibition at 10 μM)
Human opioid (ORL1); [125I]-Nociceptin, human ORL1 membranes
  A10: inhibition of radioligand binding: − (“−” indicates less than 50% inhibition at 10 μM)
